Key:
[1] = test system: mouse embryonic fibroblasts (MEFs); assay: Reprogramming into iPSCs (OSKM) in mouse embryonic fibroblasts, AP staining; assay type: cell-based; settings: for effect on reprogramming, number of AP+ colonies: MEFs, OSKM, after 14 days, indicated concentrations
Description: During reprogramming into iPSCs by introducing OSKM reprogramming factor into mouse embryonic fibroblasts (MEFs), rotenone, the guanidine derivatives of the present invention, and phenformin were treated at the indicated concentrations. After 14 days, alkaline phosphatase (AP) staining was performed (FIG. 2A), and the number of AP^+ colonies was quantified (FIG. 2b). […] In the subsequent experiment, additional efficacy was evaluated using only the three compounds showing the effective reprogramming-enhancing effect.

[2] = test system: human foreskin fibroblast (HFFs); assay: Reprogramming into iPSCs (OSKM) in human foreskin fibroblasts, AP staining; assay type: cell-based; settings: OSKM, after 28 days
Description: After 28 days, AP staining was performed (FIG. 3a), and the number of AP^+ colonies was quantified (FIG. 3b).

[3] = test system: human embryonic stem cells (hESCs); assay: Maintaining stemness of human embryonic stem cells in unconditioned medium, AP staining; assay type: cell-based; settings: hESCs in unconditioned medium, low dose
Description: Additionally, the effect of the compounds of the present invention on maintaining sternness of human embryonic stern cells (hESCs) was confirmed (FIG. 4). Specifically, when hESCs were cultured in an unconditioned medium (UM), the sternness was lost, and AP activity was weakened (FIG. 4a). […] In particular, when IM176OUT05 was treated at 10 nM and 100 nM concentrations, it was confirmed that the effect of maintaining the sternness was improved by 7.6 times and 8.2 times, respectively (FIG. 4b).

C57BL/6 mice = assay: Hair regeneration model, darkness of dorsal skin and hair growth; assay type: in vivo, mouse; settings: 1% topical daily
Description: During the hair telogen phase, the hair on the dorsal skin of 7-week-old C57BL/6 mice (Dae Han BioLink, Chungbuk, Republic of Korea) was depilated using an animal clipper and wax (Veet, Oxy Reckitt Benckiser, Seoul, Republic of Korea). From the next day, 200 μL of placebo (control), 1% IM, 1% minoxidil, or 1% metformin was applied daily to the depilated area using a sterile cotton swab. Images of each animal were captured daily, and the degree of darkness of the color on dorsal skin was quantified in the same area (1.6 cm×3 cm) using the Image J program. The mice were sacrificed, and skin tissues on days 0, 7, 14, and 20 were obtained. Half of the tissues were used for RNA isolation, and the other half were fixed with 4% paraformaldehyde overnight for histochemical analysis. It was confirmed whether the IM compound can promote hair growth without showing toxicity or other side effects through mouse experiments. In 7-week-old C57BL/6 mice, the telogen phase was motivated by hair removal, and various concentrations of IM were applied topically to the dorsal skin of the mice daily.

[4] = test system: K15/β-catenin, Ki67/Shh, K15/PDK, Ki67/PDH populations; assay: FACS analysis of single skin cells; assay type: in vivo, mouse
Description: During the hair telogen phase, the hair on the dorsal skin of 7-week-old C57BL/6 mice (Dae Han BioLink, Chungbuk, Republic of Korea) was depilated using an animal clipper and wax (Veet, Oxy Reckitt Benckiser, Seoul, Republic of Korea). From the next day, 200 μL of placebo (control), 1% IM, 1% minoxidil, or 1% metformin was applied daily to the depilated area using a sterile cotton swab. Images of each animal were captured daily, and the degree of darkness of the color on dorsal skin was quantified in the same area (1.6 cm×3 cm) using the Image J program. The mice were sacrificed, and skin tissues on days 0, 7, 14, and 20 were obtained. Half of the tissues were used for RNA isolation, and the other half were fixed with 4% paraformaldehyde overnight for histochemical analysis. After the mice were perfused with PBS to remove blood, the skin tissue was harvested and cut into small pieces. The tissue was digested with trypsin (Thermo Fisher Scientific) at 37° C. for 150 minutes, then filtered through a 75 μm nylon mesh, followed by filtering through a 30 μm mesh (BD Biosciences). Single cells were fixed, permeabilized, and blocked according to the immunostaining protocol. The cells were stained with specific antibodies (Table 1 above) and analyzed with BD Accuri™ C6 (BD Biosciences)

NC(=Nc1ccc(OC(F)(F)F)cc1)N=C(N)N1CCCC1 [IM156]
effect on reprogramming, number of AP+ colonies [1]: did not show an effect of promoting reprogramming

N=C(N)NC(=N)NCCc1ccc(Cl)c(Cl)c1 [IM176OUT04, N-1-(3,4-dichloro)phenethylbiguanide]
effect on reprogramming, number of AP+ colonies [1]: increased
concentration with the most excellent reprogramming efficacy [2]: 10 nM
AP staining (stemness) [3]: increase in AP staining

Cc1ccc(CCNC(=N)N)cc1C [IM177OUT02, 1-(3,4-dimethylphenethyl)guanide]
effect on reprogramming, number of AP+ colonies [1]: increased
concentration with the most excellent reprogramming efficacy [2]: 10 nM
AP staining (stemness) [3]: increase in AP staining

C=C(C)[C@H]1Cc2c(ccc3c2O[C@@H]2COc4cc(OC)c(OC)cc4[C@@H]2C3=O)O1 [Rotenone, reference compound]
promotion of reprogramming of somatic cells ([1]; sub-toxic dose (10 nM)): efficiently promote reprogramming

CN(C)C(=N)N=C(N)N [metformin, reference compound]
hair growth effect overall (C57BL/6 mice): did not show a remarkable effect
darkness intensity on the dorsal skin compared to control (C57BL/6 mice; from day 8): slightly was increased

Nc1cc(N2CCCCC2)nc(N)[n+]1[O-] [minoxidil, reference compound]
K15+/β-catenin+ population in single skin cells ([4]; day 7, FACS): 6.0%
Ki67+/PDH+ population ([4]; day 7, FACS): 8.3%
Ki67+/Shh+ population in single skin cells ([4]; day 20, FACS): 34%

[H]/N=C(/N)N/C(=N/[H])NCCc1ccccc1 [phenformin, reference compound]
effect on reprogramming, number of AP+ colonies [1]: did not show an effect of promoting reprogramming

Reference: patent publication US20220000811A1, “COMPOSITION FOR PROMOTING HAIR GROWTH COMPRISING A GUANINE DERIVATIVE” (KOREA RESEARCH INSTITUTE OF BIOSCIENCE AND BIOTECHNOLOGY, priority 2019, published 2022)
